Test results reported in paper PMC10363080, “Modulatory Effect of Pyrus pyrifolia Fruit and its Phenolics on Key Enzymes against Metabolic Syndrome: Bioassay-Guided Approach, HPLC Analysis, and In Silico Study” (Plant Foods for Human Nutrition (Dordrecht, Netherlands), 2023).
Read-outs that look alike come from different tables or passages of the source.

Columns and labels:
[1] = ABTS radical scavenging antioxidant assay; set-up: ABTS AA (%) antioxidant activity percentage: concentration or dose not given beside the values; settings: for ABTS antioxidant activity: Trolox equivalent per gram of sample, mean ± SD, n=3; for ABTS AA (%) antioxidant activity percentage: compared to ascorbic acid (=100)
Procedure: (§1) all of analytical grade. An electrothermal 9100 (UK) was used for the determination of melting points (uncorrected). A Jenway model 6800 spectrophotometer was utilized for recording UV spectra. A Tecan, microplate reader, ((Infinite F50, Switzerland)) was used to measure the absorbances. A Bruker NMR system was used for 1H-NMR (400 MHz) and 13C-NMR (100 MHz).
(§2) The NMR spectra were determined in CD3OH and DMSO-d6. Chemical shifts are given in δ (ppm) relative to the internal standard TMS. Phenolic acids and flavonoids used in HPLC analysis as well as all other reagents for biological investigations were obtained from Sigma Chemical Company […]
(§3) Determination of the antioxidant activity
(§4) 2,2`-Azino-bis(3-ethylbenzothiazoline-6-sulfonic acid) (ABTS), ferric reducing antioxidant power (FRAP), and oxygen radical absorbance capacity (ORAC) assays were performed according to the previously published procedures. Ascorbic acid was used as a reference antioxidant […]
drug. […]

[2] = Ferric reducing antioxidant power (FRAP) assay; set-up: FRAP AA (%) antioxidant activity percentage: concentration or dose not given beside the values; settings: for FRAP antioxidant activity: Trolox equivalent per gram of sample, mean ± SD, n=3; for FRAP AA (%) antioxidant activity percentage: compared to ascorbic acid (=100)
Procedure: as §1, §2, §3, §4
drug. […]

[3] = Oxygen radical absorbance capacity (ORAC) assay; settings: for ORAC antioxidant activity: Trolox equivalent per gram of sample, mean ± SD, n=3; for ORAC AA (%) antioxidant activity percentage: compared to ascorbic acid (=100)
Procedure: as §1, §2, §3, §4
drug. […]

[4] = target: T1, Recombinant renin (Homo sapiens, UniProt P00797); assay: Renin inhibitory activity (renin-inhibitor screening assay kit); format: biochemical; settings: read-out: Inhibition (IC50) Renin (converted)
T1 construct: purchased BPS Bioscince
T1 sequence (P00797 67-406): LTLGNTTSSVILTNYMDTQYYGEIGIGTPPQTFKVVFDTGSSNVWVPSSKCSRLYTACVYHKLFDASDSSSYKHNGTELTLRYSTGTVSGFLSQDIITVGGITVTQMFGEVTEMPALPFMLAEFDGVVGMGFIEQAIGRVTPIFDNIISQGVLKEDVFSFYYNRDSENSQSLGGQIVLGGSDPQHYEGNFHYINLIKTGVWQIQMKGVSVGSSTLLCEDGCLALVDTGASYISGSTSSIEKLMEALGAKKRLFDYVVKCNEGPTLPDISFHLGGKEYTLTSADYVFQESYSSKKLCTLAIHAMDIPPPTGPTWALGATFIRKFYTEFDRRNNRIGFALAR
Procedure: all of analytical grade. […]
(§5) Phenolic acids and flavonoids used in HPLC analysis as well as all other reagents for biological investigations were obtained from Sigma Chemical Company […]
(§6) Inhibitory activity against key enzymes related to metabolic syndrome (MS) All assays were performed in 96-well plates. Stock solutions of the extract (100 mg/mL), fractions (100 mg/mL), and isolated compounds (1000 µM) were prepared. Tested samples that exceeded […]
(§7) inhibitory concentration (IC50). The percentage of enzyme inhibition was calculated according to […]
(§8) % Inhibition = (A−B) − (C−D) x 100 […]
Renin inhibitory activity
The renin inhibitory activity was examined according to a previously described method using renin-inhibitor screening assay kit (BPS Bioscince, San Diego, CA, USA) and quinapril as a reference drug. Recombinant renin enzyme (50 μL) was dissolved in 50-mM Tris-HCl buffer (pH 8.0) and 100-mM NaCl (assay buffer) and stored at –80°C for further analysis. Twenty μL of renin substrate (A500 μM in DMSO), 150 μL of assay buffer, and 10 μL of each sample were used to prepare test solutions (10mg/ml in methanol). The blank samples were made using 10 μL of the sample, 20 μL of the substrate, and 160 μL of assay buffer. The positive control samples were created using 10 μL of methanol, 20 μL of substrate, and 150 μL of assay buffer. The positive control and tested samples were combined with 10 μL of the renin solution for the assay in order to catalyze the reaction. After that, the reaction mixture was incubated for 45 minutes at 37 °C.
The fluorescence generated at the 340 nm excitation and 490 nm emission wavelengths was measured using a microplate reader.
Xanthine oxidase (XO) inhibitory activity
Xanthine oxidase (XO) inhibitory potential was carried out according to a previous designed procedure using xanthine oxidase (XO, EC 1.17.3.2; Biovision, USA). Allopurinol was applied as a reference drug. Immediately prior to use, a mixture was made up of 50 μL of sample solution, 35 μL of phosphate buffer (70 mM, pH = 7.5), and 30 μL of new enzyme solution (0.01 units/mL in the same buffer). The reaction was started by adding 60 μL of the substrate solution (150 μM xanthine in the same buffer) following a pre-incubation at 25 °C for 15 minutes. After that, the mixture was incubated at 25 °C for 30 min. After adding 25 μL of 1 M HCl to terminate the reaction, the absorbance was measured at 290 nm with a microplate reader as previously

[5] = target: T2, inducible nitric oxide synthase (iNOS) (Mus musculus, UniProt P29477); assay: iNOS inhibitory activity in LPS-induced RAW264.7 macrophages (nitrite, Griess reagent); format: cell-based; settings: read-out: Inhibition (IC50) iNOS (converted)
T2 construct: endogenous in cells; host or cells: RAW264.7 mouse macrophages, LPS-induced
T2 sequence (P29477 1-1144): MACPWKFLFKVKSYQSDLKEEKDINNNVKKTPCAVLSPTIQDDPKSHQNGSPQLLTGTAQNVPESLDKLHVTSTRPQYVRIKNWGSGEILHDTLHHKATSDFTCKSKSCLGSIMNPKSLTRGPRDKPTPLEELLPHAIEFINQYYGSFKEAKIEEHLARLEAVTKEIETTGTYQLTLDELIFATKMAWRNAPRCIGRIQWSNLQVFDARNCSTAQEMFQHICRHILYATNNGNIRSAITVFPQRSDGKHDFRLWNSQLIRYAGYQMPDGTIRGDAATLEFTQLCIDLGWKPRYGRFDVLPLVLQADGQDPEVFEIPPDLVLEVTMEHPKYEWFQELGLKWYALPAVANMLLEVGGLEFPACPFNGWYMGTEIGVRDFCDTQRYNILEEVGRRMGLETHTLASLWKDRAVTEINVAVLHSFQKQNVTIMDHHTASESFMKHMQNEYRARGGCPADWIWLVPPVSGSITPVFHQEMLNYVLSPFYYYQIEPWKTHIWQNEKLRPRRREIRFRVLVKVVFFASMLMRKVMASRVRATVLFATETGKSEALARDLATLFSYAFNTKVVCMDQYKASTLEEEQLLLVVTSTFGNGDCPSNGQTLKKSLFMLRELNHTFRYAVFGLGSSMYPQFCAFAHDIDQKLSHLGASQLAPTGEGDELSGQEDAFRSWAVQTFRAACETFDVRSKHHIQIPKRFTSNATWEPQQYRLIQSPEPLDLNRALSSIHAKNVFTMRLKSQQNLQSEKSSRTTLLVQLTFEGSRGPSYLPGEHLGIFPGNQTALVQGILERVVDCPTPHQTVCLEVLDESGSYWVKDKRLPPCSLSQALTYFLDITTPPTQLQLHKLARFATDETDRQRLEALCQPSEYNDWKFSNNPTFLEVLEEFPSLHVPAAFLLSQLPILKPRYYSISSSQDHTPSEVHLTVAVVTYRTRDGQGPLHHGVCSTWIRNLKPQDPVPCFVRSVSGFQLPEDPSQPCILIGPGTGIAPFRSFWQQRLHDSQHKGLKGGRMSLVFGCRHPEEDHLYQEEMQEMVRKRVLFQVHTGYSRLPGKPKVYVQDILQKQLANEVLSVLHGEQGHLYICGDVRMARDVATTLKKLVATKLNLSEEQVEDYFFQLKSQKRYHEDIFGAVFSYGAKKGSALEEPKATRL
Procedure: as §5, §6, §7, §8
Inducible nitric oxide synthase (iNOS) inhibitory activity iNOS inhibitory activity was determined in mouse macrophage cells (RAW264.7, Shanghai BOGO Industrial Co., Ltd., China) according to a previously designed method. Phenol red-free RPMI medium from Thermo-Fisher was used to develop macrophages. It was supplemented with 10% bovine calf serum, 100 U/mL of penicillin G sodium from Sigma-Aldrich, and 100 µg/mL of streptomycin (Sigma-Aldrich). Cells (50,000/well) were seeded onto 96-well plates, which were […]

Row | Structure (SMILES) | ABTS antioxidant activity [1] | ABTS AA (%) antioxidant activity percentage [1] | FRAP antioxidant activity [2] | FRAP AA (%) antioxidant activity percentage [2] | ORAC antioxidant activity [3] | ORAC AA (%) antioxidant activity percentage [3] | ABTS antioxidant activity ([1]; listed as quercetin) | FRAP antioxidant activity ([2]; listed as quercetin) | ORAC antioxidant activity ([3]; listed as quercetin) | IC50 ([4]; isolated compounds, Table S7) | IC50 ([5]; extract and fractions, Table S2, RAW264.7 cells) | IC50 ([5]; isolated compounds, Table S7, RAW264.7 cells) | IC50 ([4]; extract and fractions, Table S2)
1 | O=C1O[C@H]([C@@H](O)CO)C(O)=C1O [Ascorbic acid, reference compound] | 287.78±1.01 μM TE/g | 100% | 155.22±0.03 μM TE/g | 100% | 390.21±0.99 μM TE/g | 100% |  |  |  |  |  |  | 
2 | O=c1c(O)c(-c2ccc(O)c(O)c2)oc2cc(O)cc(O)c12 [P5, quercetin] | 244.01±0.29 μM TE/g | 84.79% | 139.03±0.65 μM TE/g | 89.57% | 358.95±0.78 μM TE/g | 91.99% | 244.01 ± 0.29 μM TE/g | 139.03 ± 0.65 μM TE/g | 358.95 ± 0.78 μM TE/g | 21.9 ± 0.25 µM |  |  | 
3 | C=C1C(=O)O[C@H]2[C@H]1CC/C(C)=C/CC[C@@]1(C)O[C@@H]21 [parthenolide, reference compound] |  |  |  |  |  |  |  |  |  |  | 4.51 µM | 4.51 µM | 
4 | CCOC(=O)[C@H](CCc1ccccc1)N[C@@H](C)C(=O)N1Cc2ccccc2C[C@H]1C(=O)O [quinapril, reference compound] |  |  |  |  |  |  |  |  |  | 0.045 µM |  |  | 0.0456 µM
